In ChEMBL document CHEMBL5257074, “Structure Elucidation and Biosynthesis of Nannosterols A and B, Myxobacterial Sterols from Nannocystis sp. MNa10993” (J Nat Prod, 2023):
Active and inactive are the calls of the source.

Columns and labels:
[1] = system: Bacillus subtilis; assay: Antibacterial activity against Bacillus subtilis DSM10T assessed as inhibition of bacterial growth measured after 18 to 28 hrs by microbroth dilution assay; type: functional, organism-based; conditions: time 18-28 hrs
[2] = system: Escherichia coli; assay: Antibacterial activity against Escherichia coli DSM 1116T assessed as inhibition of bacterial growth measured after 18 to 48 hrs by microbroth dilution assay; type: functional, organism-based; conditions: time 18-48 hrs
[3] = system: Escherichia coli; assay: Antibacterial activity against Escherichia coli JW0451-2 assessed as inhibition of bacterial growth measured after 18 to 48 hrs by microbroth dilution assay; type: functional, organism-based; conditions: time 18-48 hrs
[4] = system: Pseudomonas aeruginosa; assay: Antibacterial activity against Pseudomonas aeruginosa PA14 (DSM 19882) assessed as inhibition of bacterial growth measured after 18 to 48 hrs by microbroth dilution assay; type: functional, organism-based; conditions: time 18-48 hrs
[5] = system: Mycolicibacterium smegmatis; assay: Antibacterial activity against Mycobacterium smegmatis (DSM 43756) assessed as inhibition of bacterial growth measured after 18 to 28 hrs by microbroth dilution assay; type: functional, organism-based; conditions: time 18-28 hrs
[6] = system: Staphylococcus aureus; assay: Antibacterial activity against Staphylococcus aureus Newman assessed as inhibition of bacterial growth measured after 18 to 28 hrs by microbroth dilution assay; type: functional, organism-based; conditions: time 18-28 hrs
[7] = system: Candida albicans; assay: Antifungal activity against Candida albicans DSM 1665 assessed as inhibition of fungal growth measured after 18 to 48 hrs by microbroth dilution assay; type: functional, organism-based; conditions: time 18-48 hrs
[8] = system: Mucor hiemalis; assay: Antifungal activity against Mucor hiemalis DSM 2656 assessed as inhibition of fungal growth measured after 18 to 48 hrs by microbroth dilution assay; type: functional, organism-based; conditions: time 18-48 hrs
[9] = system: HepG2; assay: Antiproliferative activity against human HepG2 cells incubated for 5 days by MTT assay; type: functional, cell-based; conditions: time 5.0 day

Measured: Activity

C[C@H](CC[C@@H](O)C(C)(C)O)[C@H]1C[C@@H](O)[C@H]2[C@@H]3C(=O)C[C@H]4C[C@@H](O)CC[C@]4(C)[C@H]3CC[C@@]21C
inactive: all assays above

C[C@H](CC[C@@H](O)C(C)(C)O)[C@H]1C[C@@H](O)[C@H]2[C@@H]3C(=O)C[C@H]4C[C@@H](O)CC[C@]4(C)[C@H]3CC[C@@]21CO
inactive: all assays above
